{"source": "patent US10603273B2", "about": "“Membrane-adherent self-assembled systems for treatment of ocular disorders” (Integral Biosystems LLC, priority 2014, dated 2020)", "key": {"[1]": {"assay": "In-vitro drug release, dialysis device, 1% HP-β-CD phosphate buffer pH 7.4, 37° C.", "format": "in vitro ADME", "conditions": "0.1% nanostructured dispersion; released over 3 hours", "method": "In-vitro drug release was determined at 37° C., pH 7.4 as follows: The Phase III dispersion (1 g) was transferred into a Spectra/Pore Float-A-Lyzer G2 dialysis device, which was then placed into a 50 mL locking centrifuge tube containing 40 g of 1% hydroxylpropyl-β-cyclodextrin (HP-β-CD) in phosphate buffer at pH 7.4, 37° C. The entire assembly was loaded onto a Robbins Scientific Model 400 rotating incubator. At each time point, 1 mL of sample was retrieved and fresh buffer added to replace the volume removed. Samples were measured for drug content using HPLC at λmax=239 nm."}, "[2]": {"assay": "Solubility of API in Phase I excipient mixtures", "format": "physicochemical", "method": "Solubility of APIs were examined in different Phase I mixtures.\nInitially, the solubility of fluticasone propionate was determined in 10 g of Phase I composed of a 7:3 (w/w) mixture of PHOSAL™ Medium Chain Triglycerides (“MCT”) and polyethylene glycol-400 (PEG-400). MCT, a mixture of phosphatidylcholine and medium chain triglycerides, is the hydrophobic component and PEG-400 is the hydrophilic component in this exemplary Phase I. MCT and PEG-400 were added into a glass vial and the mixture was vortexed for 2 min until the components formed a homogeneous mixture. Fluticasone propionate was added in an incremental manner and stirred at 850 rpm using a Scilogex MSH 280 Pro hot stir plate at a temperature of 37° C. Stirring was continued until saturation solubility was reached.\nIn order to increase the solubility of the fluticasone propionate in Phase I, mineral oil (Drakeol 600LT) was added into the composition. A Phase I containing MCT: PEG-400: mineral oil weight ratio of 7:2:1 was prepared as described above. The total amount of Phase I was 10 g. Fluticasone propionate was added in an incremental manner and the mixture was stirred for 5 min. and vortexed for 5 min after each addition of fluticasone propionate into the mixture. In this Phase I, 98.2 mg of fluticasone propionate dissolved completely in 37 min.\nAnother Phase I mixture containing PEG-400, polypropylene glycol (PPG), and cremophor in a weight ratio 2.9:7:0.1 was also evaluated. Cremophor was used because it is widely used as a co-solvent to enhance the solubility of poorly soluble drugs.\nIn this Phase I, 200.30 mg of fluticasone propionate was completely dissolved in 10 g when stirred at 1200 rpm for 2 min at 45° C.\nAnother Phase I mixture was produced containing 30% w/w PEG-400, 60% w/w PPG, 5% w/w MCT, 0.25% w/w cetyl alcohol, and 4.75% w/w ethanol. In 10 g of this Phase I, 180 mg fluticasone propionate dissolved completely after stirring at 1280 rpm for 15 min at 45° C.\nTriamcinolone acetonide is a […] anti-inflammatory drug having low aqueous solubility.\nA Phase I containing 30% w/w PEG-400, 20% w/w PPG, 0.5% w/w cetyl alcohol, 9.5% w/w ethanol, 5% w/w MCT and 35% w/w Castor oil was produced. Triamcinolone acetonide was added incrementally and the mixture stirred at 840 rpm using a Scilogex MSH 280 Pro set to 45° C."}, "[3]": {"assay": "Particle size distribution (Horiba particle size analyzer)", "format": "physicochemical", "conditions": "nanodispersion of the named drug, drug delivery platform of Example 1", "method": "Particle sizing was carried out by adding approximately 20 μL of the Phase III dispersion in a solution of 2% w/w glycerin, 0.1% w/w sodium pyrophosphate decahydrate. Particle size distribution of the Phase III nano-dispersions were measured using a Horiba LA-950V2 particle size analyzer at room temperature, i.e., 22-25° C."}, "[4]": {"assay": "Solubility of fluticasone propionate in nanostructured dispersions and single excipients", "format": "physicochemical", "conditions": "for solubility: oil or lipid", "method": "Phase I was prepared containing PEG-400 at 20%, PPG at 10%, cetyl alcohol at 10%, MCT at 1%, PEG-stearate at 7%, poloxamer 407 at 2.22%, tyloxapol at 1%, polysorbate 80 at 1%, castor oil at 38%, and fluticasone propionate at 1-2%.\nThe composition of Phase II was sodium phosphate monobasic (0.017%), sodium phosphate dibasic (0.052%), sodium hyaluronate (0.15%), and dH2O (99.78%).\nPhase I was mixed with Phase II at a weight ratio of 1:9.\nThe concentration of fluticasone propionate achievable in this formulation was 0.1-0.2%.\nThe solubility of fluticasone propionate in cetyl alcohol was 0.3 mg/ml. As just described, the final dispersion has a fluticasone propionate concentration of 1-2 mg/ml (0.1-0.2%).\nIn this example, cholesterol was added to obtain a higher concentration of hydrophobic excipients. The composition of Phase I was PEG-400 (20%), PPG (10%), cetyl alcohol (10%), cholesterol (2%), MCT (10%), PEG-stearate (5%), poloxamer 407 (2.22%), tyloxapol (1%), polysorbate 80 (1%), castor oil (36.9%), and fluticasone propionate (1-5%).\nThe final concentration of fluticasone propionate achievable in this formulation is 0.1-0.5% The maximum amount of fluticasone propionate expected to be solubilized by adding up the amount solubilized in each separate excipient is 0.06%."}, "[5]": {"assay": "Encapsulation efficiency (centrifugation, HPLC)", "format": "physicochemical", "conditions": "0.1% nanostructured dispersion (Phase III); mg drug per g dispersion", "method": "Encapsulation efficiency (mg/G) was measured by placing 1.0 g of drug-containing Phase III into a 1.5 mL centrifuge tube and centrifuging it at 6000 rpm for 10 minutes using an Eppendorf Centrifuge 5145D at room temperature. 100 μL of the centrifugate was transferred to an HPLC vial containing 900 μL of 75% acetonitrile/25% water. The samples were measured for concentration of drug, e.g., dexamethasone, by HPLC at λmax=239 nm. The concentration was calculated as mg drug per g of the Phase III dispersion."}, "freshly excised cornea": {"test_system": "freshly excised cornea", "assay": "Ex-vivo corneal permeability, Franz-Cell diffusion chamber", "format": "in vitro ADME, calf", "conditions": "% of applied drug in 22 hours, 37° C.", "text": "Ex-vivo corneal permeability testing is a useful tool to screen formulations for their ability to penetrate ocular tissues. Using freshly excised cornea, formulations can be tested for their ability to diffuse across the cornea membrane. The ability to diffuse through biological membranes is directly related to the formulation excipients, its physical state (e.g., suspension, solution, emulsion, dispersion) and its partition coefficient (P) and log P. Fresh calf eyes were obtained from a nearby slaughterhouse and the corneas carefully excised using sterile technique. The corneas must be freshly excised and used within 1-2 hours. The corneas were excised in a sterilized laminar flow hood, in a Class 100 environment. The excisions were performed by first draining the aqueous humor followed by carefully cutting out the cornea using a scalpel for the initial incision; forceps and scissors were used to cut the remaining tissue. […] The volume was recorded, and the remaining cells filled. […] Samples were added in rapid succession by depositing 200 μL of the formulation into each donor chamber using a calibrated pipet and the times recorded. […] The samples were analyzed for API content by HPLC as described above. […] Flux can be calculated by the formula: J=Q/(A·t), where Q is the quantity of compound traversing the membrane in time t, and A is the area of exposed membrane in cm^2. […]"}}, "note": "Read-outs that look alike come from different tables or passages of the source."}
{"compound": "C[C@@H]1C[C@H]2[C@@H]3CCC4=CC(=O)C=C[C@]4(C)[C@@]3(F)[C@@H](O)C[C@]2(C)[C@@]1(O)C(=O)CO", "note": "[dexamethasone]", "values": [{"measurement": "in vitro drug release", "setting": "[1]", "result": "at least 25%"}]}
{"compound": "CCC(=O)O[C@]1(C(=O)SCF)[C@H](C)C[C@H]2[C@@H]3C[C@H](F)C4=CC(=O)C=C[C@]4(C)[C@@]3(F)[C@@H](O)C[C@@]21C", "note": "[fluticasone propionate]", "values": [{"measurement": "amount completely dissolved in Phase I", "setting": "[2]; in 10 g of 5% cetyl alcohol in ethanol, 1200 rpm, 2 min, 45° C.", "result": 200.30, "unit": "mg"}, {"measurement": "amount dissolved completely in Phase I", "setting": "[2]; in 10 g of Phase I, MCT:PEG-400:mineral oil 7:2:1, dissolved in 37 min", "result": 98.2, "unit": "mg"}, {"measurement": "amount dissolved in Phase I", "setting": "[2]; in 10 g of Phase I: 30% PEG-400, 60% PPG, 5% MCT, 0.25% cetyl alcohol, 4.75% ethanol, 1280 rpm, 45° C.", "result": 180, "unit": "mg"}, {"measurement": "D50", "setting": "[3]", "result": 0.141, "unit": "μm"}, {"measurement": "D90", "setting": "[3]", "result": 0.181, "unit": "μm"}, {"measurement": "maximum concentration expected from adding the solubilized contribution of each excipient", "setting": "[4]; Example 8 excipients", "result": 0.05, "unit": "%"}, {"measurement": "fluticasone propionate concentration of final dispersion", "setting": "[4]; Example 8 final dispersion", "result": "1 to 2", "unit": "mg/mL"}, {"measurement": "concentration of fluticasone propionate achievable in formulation", "setting": "[4]; Example 8 formulation, Phase I:Phase II 1:9, by weight", "result": "0.1-0.2%"}, {"measurement": "maximum amount expected to be solubilized by adding up the amount solubilized in each separate excipient", "setting": "[4]; Example 9 excipients", "result": 0.06, "unit": "%"}, {"measurement": "final concentration of fluticasone propionate achievable in formulation", "setting": "[4]; Example 9 formulation with cholesterol, Phase I:Phase II 1:9", "result": "0.1-0.5%"}, {"measurement": "solubility", "setting": "[4]; PHOSAL MCT alone, read-out: solubility in MCT", "result": 150, "unit": "µg/mL"}, {"measurement": "solubility", "setting": "[4]; cetyl alcohol alone, read-out: solubility in cetyl alcohol", "result": 300, "unit": "µg/mL"}]}
{"compound": "CCOC(=O)O[C@]1(C(=O)OCCl)CC[C@H]2[C@@H]3CCC4=CC(=O)C=C[C@]4(C)[C@H]3[C@@H](O)C[C@@]21C", "note": "[loteprednol etabonate]", "values": [{"measurement": "amount of drug encapsulated", "setting": "[5]", "result": 1.24, "unit": "mg/G"}, {"measurement": "in vitro drug release", "setting": "[1]", "result": 35, "unit": "%"}, {"measurement": "corneal permeability, drug released into the receptor solution", "setting": "freshly excised cornea", "result": 36, "unit": "%"}]}
{"compound": "CC1(C)O[C@@H]2C[C@H]3[C@@H]4CCC5=CC(=O)C=C[C@]5(C)[C@@]4(F)[C@@H](O)C[C@]3(C)[C@]2(C(=O)CO)O1", "note": "[triamcinolone acetonide]", "values": [{"measurement": "saturation solubility in Phase I", "setting": "[2]; in 10 g of Phase I: 30% PEG-400, 20% PPG, 0.5% cetyl alcohol, 9.5% ethanol, 5% MCT, 35% castor oil, 840 rpm, 45° C.", "result": 230, "unit": "mg"}]}
